Reference: ChEMBL document CHEMBL1201862, “PubChem BioAssay data set” (2004)
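Grown in 96-well plates, cells were treated for 48 hours with each compound at five concentrations. Insufficient inhibition: endpoint recorded as highest concentration tested. GI50 is the concentration that inhibits growth by half.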 Activity calls are given as the source filed them. No stated cut-off is given here; in the data, active = GI50 up to about 1.1 µM and inactive = higher.

Legend:
Test in all cases: growth of human tumour cells (NCI), 48 h
HL-60 = system: HL-60
786-0 = system: 786-0
HT-29 = system: HT-29
HCC 2998 = system: HCC 2998
CAKI-1 = system: CAKI-1
PC-3 = system: PC-3
NCI-H226 = system: NCI-H226
OVCAR-5 = system: OVCAR-5
K562 = system: K562
NCI/ADR-RES = system: NCI/ADR-RES
U-251 = system: U-251
HOP-62 = system: HOP-62
LOX IMVI = system: LOX IMVI
UO-31 = system: UO-31
OVCAR-3 = system: OVCAR-3
A498 = system: A498
BT-549 = system: BT-549
SNB-75 = system: SNB-75
NCI-H522 = system: NCI-H522
MOLT-4 = system: MOLT-4

SMILES	GI50 (HL-60)	GI50 (786-0)	GI50 (HT-29)	GI50 (HCC 2998)	GI50 (CAKI-1)	GI50 (PC-3)	GI50 (NCI-H226)	GI50 (OVCAR-5)	GI50 (K562)	GI50 (NCI/ADR-RES)	GI50 (U-251)	GI50 (HOP-62)	GI50 (LOX IMVI)	GI50 (UO-31)	GI50 (OVCAR-3)	GI50 (A498)	GI50 (BT-549)	GI50 (SNB-75)	GI50 (NCI-H522)	GI50 (MOLT-4)
CC1=[N+]([O-])C2(CCCC2)N(O)C1(C)C	> 100 µM (inactive)	> 100 µM (inactive)	> 100 µM (inactive)	> 100 µM (inactive)	> 100 µM (inactive)	> 100 µM (inactive)	> 100 µM (inactive)	> 100 µM (inactive)	> 100 µM (inactive)	> 100 µM (inactive)	> 100 µM (inactive)	> 100 µM (inactive)	> 100 µM (inactive)	> 100 µM (inactive)	> 100 µM (inactive)	–	–	–	–	–
C[C@]12CC[C@@H]3c4ccc(OS(N)(=O)=O)cc4CC[C@H]3[C@@H]1CCC2=O [EMATE]	33 µM (inactive)	53.3 µM (inactive)	30.1 µM (inactive)	49.2 µM (inactive)	> 100 µM (inactive)	–	49.3 µM (inactive)	> 100 µM (inactive)	24.7 µM (inactive)	26.6 µM (inactive)	46.2 µM (inactive)	55.2 µM (inactive)	75.9 µM (inactive)	38.7 µM (inactive)	64 µM (inactive)	97.1 µM (inactive)	45 µM (inactive)	42.4 µM (inactive)	–	–
C[C@@H]([C@H]1CC[C@@]2(C)[C@@H]3CC[C@@H]4C(=CC3=CC[C@]12C)CC[C@H](N(C)C)C4(C)C)N(C)C [BUXAMINE A]	> 100 µM (inactive)	> 100 µM (inactive)	> 100 µM (inactive)	> 100 µM (inactive)	> 100 µM (inactive)	> 100 µM (inactive)	> 100 µM (inactive)	> 100 µM (inactive)	> 100 µM (inactive)	> 100 µM (inactive)	> 100 µM (inactive)	> 100 µM (inactive)	> 100 µM (inactive)	–	> 100 µM (inactive)	–	–	–	> 100 µM (inactive)	> 100 µM (inactive)
CCSCCCCC(c1ccc(O)cc1)C(C)(CC)c1ccc(O)cc1 (configuration not stated)	> 100 µM (inactive)	24.4 µM (inactive)	–	15.3 µM (inactive)	35 µM (inactive)	20.3 µM (inactive)	17.9 µM (inactive)	24.4 µM (inactive)	42.1 µM (inactive)	20.3 µM (inactive)	16.4 µM (inactive)	53.7 µM (inactive)	17.6 µM (inactive)	19.6 µM (inactive)	18.2 µM (inactive)	> 100 µM (inactive)	–	> 100 µM (inactive)	17.7 µM (inactive)	32.1 µM (inactive)
COc1ccc2c(c1)C1=NCCN(CCN(C)C)c3ccc([N+](=O)[O-])c(c31)N2	0.427 µM (active)	0.255 µM (active)	0.348 µM (active)	–	0.56 µM (active)	0.411 µM (active)	2.17 µM (inactive)	1.59 µM (inactive)	0.364 µM (active)	0.957 µM (active)	0.649 µM (active)	1.21 µM (inactive)	0.351 µM (active)	0.735 µM (active)	0.499 µM (active)	1.59 µM (inactive)	0.815 µM (active)	0.173 µM (active)	–	0.355 µM (active)
Cc1cc(C)c2c(O)c(S(=O)(=O)c3ccc(Cl)cc3)c(=O)oc2c1	52.8 µM (inactive)	78.2 µM (inactive)	95.3 µM (inactive)	–	72.6 µM (inactive)	49 µM (inactive)	24.3 µM (inactive)	93.1 µM (inactive)	55.6 µM (inactive)	26.2 µM (inactive)	37.7 µM (inactive)	61.8 µM (inactive)	–	50.8 µM (inactive)	40 µM (inactive)	> 100 µM (inactive)	67.9 µM (inactive)	45 µM (inactive)	–	–
O=C1C2=Cc3ccccc3CCN2c2ccc([N+](=O)[O-])cc21	66.5 µM (inactive)	> 100 µM (inactive)	> 100 µM (inactive)	> 100 µM (inactive)	69.3 µM (inactive)	> 100 µM (inactive)	64 µM (inactive)	> 100 µM (inactive)	> 100 µM (inactive)	24 µM (inactive)	> 100 µM (inactive)	> 100 µM (inactive)	92.7 µM (inactive)	24.2 µM (inactive)	44.2 µM (inactive)	35.9 µM (inactive)	–	> 100 µM (inactive)	24 µM (inactive)	45.7 µM (inactive)
Nc1nc(Cl)cc(NCC2(CO)CC(CCCCc3ccccc3)C2)n1 (configuration not stated)	6.55 µM (inactive)	42.3 µM (inactive)	13.7 µM (inactive)	37.7 µM (inactive)	82.8 µM (inactive)	46.1 µM (inactive)	> 100 µM (inactive)	> 100 µM (inactive)	2.23 µM (inactive)	–	> 100 µM (inactive)	99.8 µM (inactive)	5.73 µM (inactive)	–	> 100 µM (inactive)	18.1 µM (inactive)	> 100 µM (inactive)	81.3 µM (inactive)	66.7 µM (inactive)	3.36 µM (inactive)
COc1ccc(C2Oc3c(cccc3OC)C=C2[N+](=O)[O-])cc1OC (configuration not stated)	2.62 µM (inactive)	3.74 µM (inactive)	18.5 µM (inactive)	–	13.8 µM (inactive)	4.08 µM (inactive)	18.6 µM (inactive)	13.8 µM (inactive)	2.58 µM (inactive)	3.87 µM (inactive)	3.97 µM (inactive)	21.2 µM (inactive)	2.49 µM (inactive)	14.7 µM (inactive)	11.9 µM (inactive)	–	5.47 µM (inactive)	7.21 µM (inactive)	2.97 µM (inactive)	2.85 µM (inactive)
O=C(c1cc(Cl)ccc1Cl)N1CCN(c2cccc(Cl)c2)CC1	38.4 µM (inactive)	15.3 µM (inactive)	12.4 µM (inactive)	13.5 µM (inactive)	17.7 µM (inactive)	2.08 µM (inactive)	12.8 µM (inactive)	26.4 µM (inactive)	3.92 µM (inactive)	–	19 µM (inactive)	16 µM (inactive)	10.9 µM (inactive)	19.7 µM (inactive)	14.5 µM (inactive)	12.7 µM (inactive)	8.61 µM (inactive)	13.9 µM (inactive)	10.6 µM (inactive)	8.51 µM (inactive)
Oc1cnc2c(O)cccc2c1 [JINEOL]	31.5 µM (inactive)	35.5 µM (inactive)	32.7 µM (inactive)	43.4 µM (inactive)	–	36.8 µM (inactive)	24.2 µM (inactive)	24.9 µM (inactive)	51.3 µM (inactive)	18.2 µM (inactive)	48.9 µM (inactive)	26.7 µM (inactive)	26.2 µM (inactive)	30.8 µM (inactive)	20.6 µM (inactive)	> 100 µM (inactive)	–	20.7 µM (inactive)	19.2 µM (inactive)	41.7 µM (inactive)
